Source: the NIST ThermoML archive (doi:10.1016/j.jct.2018.09.027)

Test: molar heat capacity at constant pressure
Conditions: 100 kPa, Crystal, DSC

O=C(O)c1cc(O)c(O)c(O)c1 [3,4,5-trihydroxybenzoic acid]
Conditions | molar heat capacity at constant pressure [J/K/mol]
263.15 K | 178.8
264.15 K | 179.31
265.15 K | 179.82
266.15 K | 180.5
267.15 K | 181.18
268.15 K | 181.86
269.15 K | 182.54
270.15 K | 183.05
271.15 K | 183.73
272.15 K | 184.41
273.15 K | 184.92
274.15 K | 185.77
275.15 K | 185.6
276.15 K | 186.96
277.15 K | 187.3
278.15 K | 188.15
279.15 K | 188.49
280.15 K | 189
281.15 K | 189.34
282.15 K | 189.85
283.15 K | 190.36
284.15 K | 191.21
285.15 K | 191.55
286.15 K | 192.24
287.15 K | 193.09
288.15 K | 193.6
289.15 K | 194.28
290.15 K | 194.79
291.15 K | 195.64
292.15 K | 196.32
293.15 K | 197
294.15 K | 197.51
295.15 K | 198.19
296.15 K | 198.7
297.15 K | 199.38
298.15 K | 199.55
299.15 K | 200.06
300.15 K | 200.57
301.15 K | 201.25
302.15 K | 201.76
303.15 K | 202.44
304.15 K | 203.12
305.15 K | 203.8
306.15 K | 204.31
307.15 K | 204.65
308.15 K | 205.33
309.15 K | 206.18
310.15 K | 206.7
311.15 K | 207.04
312.15 K | 207.38
313.15 K | 208.23
314.15 K | 208.91
315.15 K | 209.08
316.15 K | 209.76
317.15 K | 210.61
318.15 K | 211.12
319.15 K | 211.46
320.15 K | 211.8
321.15 K | 212.14
322.15 K | 212.99
323.15 K | 211.97
324.15 K | 212.22
325.15 K | 212.9
326.15 K | 213.59
327.15 K | 214.27
328.15 K | 214.61
329.15 K | 215.09
330.15 K | 215.6
331.15 K | 216.11
332.15 K | 216.39
333.15 K | 216.9
334.15 K | 217.47
335.15 K | 217.92
336.15 K | 217.16
337.15 K | 217.71
338.15 K | 218.35
339.15 K | 218.99
340.15 K | 219.58
341.15 K | 220.09
342.15 K | 220.69
343.15 K | 221.58
344.15 K | 220.47
345.15 K | 220.64
346.15 K | 221.55
347.15 K | 222.29
348.15 K | 222.74
349.15 K | 223.31
350.15 K | 223.76
351.15 K | 224.44
352.15 K | 225.58
353.15 K | 224.69
354.15 K | 225.11
355.15 K | 225.75
356.15 K | 226.47
357.15 K | 226.9
358.15 K | 227.28
359.15 K | 227.92
360.15 K | 228.68
361.15 K | 229.15
362.15 K | 229.7
363.15 K | 229.83
364.15 K | 230.21
365.15 K | 230.81
366.15 K | 231.19
367.15 K | 233.29
368.15 K | 233.91
369.15 K | 234.54
370.15 K | 234.94
371.15 K | 235.6
372.15 K | 236.24
373.15 K | 236.91
374.15 K | 237.55
375.15 K | 238.16
376.15 K | 238.86
377.15 K | 239.45
378.15 K | 240.16
379.15 K | 240.81
380.15 K | 241.44
381.15 K | 242.11
382.15 K | 242.78
383.15 K | 243.42
384.15 K | 244.06
385.15 K | 244.7
386.15 K | 245.37
387.15 K | 246.02
388.15 K | 246.65
389.15 K | 247.32
390.15 K | 248.01
391.15 K | 248.58
392.15 K | 249.14
393.15 K | 249.71
394.15 K | 250.27
395.15 K | 250.84
396.15 K | 251.4
397.15 K | 251.97
398.15 K | 252.44
399.15 K | 253.11
400.15 K | 253.68
401.15 K | 254.24
402.15 K | 254.81
403.15 K | 255.1
404.15 K | 255.93
405.15 K | 256.5
406.15 K | 257.08
407.15 K | 257.65
408.15 K | 258.22
409.15 K | 258.78
410.15 K | 259.34
411.15 K | 259.92
412.15 K | 260.74
413.15 K | 261.25
414.15 K | 261.59
415.15 K | 261.81
416.15 K | 262.27
417.15 K | 262.78
418.15 K | 263.53
419.15 K | 264.31
420.15 K | 265.03
421.15 K | 266.54
422.15 K | 266.57
423.15 K | 267.3
424.15 K | 268.08
425.15 K | 268.84
426.15 K | 269.59
427.15 K | 270.33
428.15 K | 271.11
429.15 K | 271.85
430.15 K | 272.62
431.15 K | 273.38
432.15 K | 274.32
433.15 K | 274.91
434.15 K | 275.59
435.15 K | 275.85
436.15 K | 276.19
437.15 K | 276.7
438.15 K | 277.38
439.15 K | 277.72
440.15 K | 278.23
441.15 K | 278.83
442.15 K | 279.51
443.15 K | 280.61
444.15 K | 280.87
445.15 K | 281.12
446.15 K | 281.63
447.15 K | 282.23
448.15 K | 283.16
449.15 K | 283.84
450.15 K | 284.18
451.15 K | 285.04
452.15 K | 286.14
453.15 K | 286.82
454.15 K | 287.67
455.15 K | 288.44
456.15 K | 289.03
457.15 K | 289.8
458.15 K | 290.56
459.15 K | 291.24
460.15 K | 292.18
461.15 K | 292.86
462.15 K | 293.2
463.15 K | 293.8
464.15 K | 294.99
465.15 K | 295.67
466.15 K | 296.35
467.15 K | 297.03
468.15 K | 297.96
469.15 K | 298.9
470.15 K | 300.18
471.15 K | 301.03
